Assay results published in patent US20090312414A1, “Treatment Of Lower Urinary Tract Dysfunction With CB2-Receptor-Selective Agonists” (priority 2008, published 2009).

Columns and labels:
[1] = system: conscious normal rats; test: Cystometry in normal conscious rats; type: in vivo, rat; conditions: for Residual volume (RV): ns
Excerpt: This study involved a determination of the acute effect of the compound of Formula I, a peripherally-selective, CB2-receptor-selective agonist, on normal bladder function in normal conscious freely moving rats using cystometry.
Female Sprague-Dawley rats, weighing 225-300 g, were maintained under standard laboratory conditions with a 12:12 light/dark cycle and free access to food pellets and water. After surgical procedures, rats were individually caged to prevent chewing of the catheters. For surgical procedures, the rats were anesthetized by intraperitoneal injection of 75 mg/kg ketamine (Ketalar®, Pfizer, Sweden) and 15 mg/kg xylazine (Rompun®, Bayer, Sweden).
The bladder was exposed via a mid-line incision of the lower abdomen. A saline-filled polyethylene catheter (PE-50, Clay-Adams, Parsippany, N.J.) with a cuff was inserted into the dome of the bladder and held in place with a purse string suture. The catheter was tunneled subcutaneously and anchored at the neck with a silk ligature, and the free end of the catheter was sealed.
In the same surgical session as for implantation of the bladder catheter, access to the femoral vein was given via the mid-line incision of the lower abdomen after careful blunt dissection of the subcutaneous fascias and the femoral vascular sheath. A stretched PE-50 catheter filled with heparinized saline was introduced into the femoral vein and forwarded with its tip in the iliac vein. The catheter was then secured in position by two ligatures, tunneled subcutaneously to the skin of the back and anchored as described above, and the free end of the catheter was sealed.
The appropriate solution of the compound of Formula I was prepared on the day of the experiment using phosphate-buffered saline (“PBS”) as the vehicle. The compound of Formula I was dissolved to obtain a 10 mg/ml stock solution. For the 3 mg/kg dose, each animal was administered individually weight-controlled amounts in a volume of approximately 100 μl IV of the stock solution. For lower doses, appropriate dilutions of the stock solution were made and animals were administered similar volumes containing 0.3 or 1 mg/kg. […] After administration of the compound of Formula I, 100 μl of heparinized saline was also infused to flush the IV catheter, and a 90 to 120-minute observation period was allowed until final stable micturitions were obtained. Each animal served as its own control.
Cystometry was performed without anesthesia three days after the implantation of bladder catheters in normal rats. The conscious rats were placed in metabolic cages without restraint and the bladder catheters were connected via a T-tube to a pressure transducer (P23 DC; Statham Instruments Inc., Oxnard, Calif.) and a microinjection pump (CMA 100; Carnegie Medicine AB, Solna, Sweden). Micturition volumes were recorded with a fluid collector connected to a force displacement transducer (FT 03 D, Grass Instrument Co., Quincy, Mass.). Room-temperature saline was infused into the bladder continuously at a rate of 10 ml/h. Pressures and micturition volumes were recorded continuously with Acq Knowledge 3.8.1 software and a MP100 data acquisition system (Biopac Syst. Inc. Santa Barbara, Calif.) connected to a Grass polygraph (Model 7E, Grass Instrument Co). At the beginning of cystometry, the bladder was emptied via the bladder catheter.
The following urodynamic parameters were investigated: micturition pressure (“MP;” maximum bladder pressure during micturition), threshold pressure (“ThP”; bladder pressure at start of detrusor contraction), flow pressure (“FP”; bladder pressure when urethra opens), micturition interval (“MI”; time between two micturitions), micturition volume (“MV”; volume of the expelled urine), and residual volume (“RV”; volume left in bladder after a micturition). […]

[2] = system: isolated detrusor from rats with partial urethral obstruction; test: Nerve-induced contractions (electrical field stimulation) in bladder strips from PUO rats; type: ex vivo, rat; conditions: for Nerve-induced contractions: % of 60 mM K+ responses, preparations from treated PUO rats
Description: The effect of chronic treatment with the compound of Formula I was studied in contractility studies with isolated bladder strips from rats with PUO after 2 weeks of treatment with the compound of Formula I.
Bladder strips (2×2×6 mm) were dissected from PUO rat bladders. Silk ligatures were applied at both ends of the preparations which then were mounted on metal prongs in 5 ml aerated (95% O2 and 5% CO2) tissue baths (37° C.) containing Krebs solution. Mechanical activity was registered with Grass FT 03C force transducers connected to a Grass Polygraph model 7E. The preparations were stretched to a tension of approximately 10 mN and left to equilibrate for 45 minutes to attain a stable resting tonus. To establish the viability of the preparations and to determine a standard contractile level, preparations were exposed to a 60 mM K^+ Krebs solution. The effects of cumulative addition of carbachol, a non-selective muscarininc agonist (1 nM-0.1 mM), were studied in strip preparations from vehicle-treated and compound of Formula I-treated rats with PUO.
Transmural activation of nerves was performed with two platinum electrodes, placed in parallel to the sides of the strips in the organ baths. The nerves of the preparations were stimulated by means of a Grass S 48 stimulator, delivering single square-wave pulses at supramaximum voltage with duration of 0.5 ms. The polarity was changed after each pulse by means of a polarity-changing unit. The train duration was 5 seconds and the train interval 120 seconds. Frequency-response relationships were investigated at supramaximum voltage in all preparations stimulated electrically. […] All contractile responses were expressed as a percentage of the contraction elicited by 60 mM K^+ Krebs solution. Simultaneous curve fit analysis was performed using GraphPad Prism v4.0 to determine statistical significance for increased efficacy of the compound of Formula I treatment upon muscle strips. Briefly, dose-response curves were tested comparing a variable slope model vs. a fixed slope (m=1) model.

[3] = target: CB2 receptor (Homo sapiens, UniProt P34972); test: CB2 binding assay (displacement of radiolabeled agonist)
CB2 receptor, sequence (P34972 whole entry): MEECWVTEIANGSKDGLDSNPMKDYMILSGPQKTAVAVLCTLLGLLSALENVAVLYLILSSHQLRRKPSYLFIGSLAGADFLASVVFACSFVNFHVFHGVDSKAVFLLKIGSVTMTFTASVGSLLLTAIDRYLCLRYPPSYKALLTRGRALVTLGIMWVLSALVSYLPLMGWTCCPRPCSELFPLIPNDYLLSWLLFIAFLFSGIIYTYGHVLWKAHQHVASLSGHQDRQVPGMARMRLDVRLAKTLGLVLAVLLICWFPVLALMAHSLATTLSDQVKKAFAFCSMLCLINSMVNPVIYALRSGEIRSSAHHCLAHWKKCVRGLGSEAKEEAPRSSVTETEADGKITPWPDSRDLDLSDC

Question: Which “Basal pressure (BP)” value ([1]; 0.3 mg/kg IV) does the source give for `CCCCCCC(C)(C)c1cc(O)c([C@H]2CC(=O)[C@H]3C[C@@H]2C3(C)C)c(OC(=O)/C=C/C(=O)O)c1` [Formula I] here?
Answer: 4.7±2.0 cmH2O

Question: And the “Micturition pressure (MP)” value ([1]; 0.3 mg/kg IV)?
Answer: 64.3±12.3 cmH2O

Question: What about the “Rats responding with increased MI” value ([1]; 0.3 mg/kg IV) of the same compound?
Answer: 5 out of 8

Question: What about the “Rats responding with increased MV” value ([1]; 0.3 mg/kg IV) of the same compound?
Answer: 5 out of 8

Question: And the “Rats responding with increased ThP” value ([1]; 0.3 mg/kg IV)?
Answer: 5 out of 8

Question: And the “Bladder capacity (BC)” value ([1]; 0.3 mg/kg IV, not significant)?
Answer: 0.98 ± 0.21 mL

Question: What about the “Flow pressure (FP)” value ([1]; 0.3 mg/kg IV, not significant) of the same compound?
Answer: 34.1±8.8 cmH2O

Question: And the “Micturition interval (MI)” value ([1]; 0.3 mg/kg IV, not significant)?
Answer: 260 ± 69 s

Question: And the “Micturition volume (MV)” value ([1]; 0.3 mg/kg IV, not significant)?
Answer: 0.93 ± 0.21 mL

Question: And the “Threshold pressure (ThP)” value ([1]; 0.3 mg/kg IV, not significant)?
Answer: 16.5±2.2 cmH2O

Question: And the “Residual volume (RV)” value ([1]; 0.3 mg/kg IV)?
Answer: 0.01 ± 0.01 mL

Question: And the “Basal pressure (BP)” value ([1]; 1 mg/kg IV)?
Answer: 3.7±1.2 cmH2O

Question: What about the “Micturition pressure (MP)” value ([1]; 1 mg/kg IV) of the same compound?
Answer: 65.1±8.6 cmH2O

Question: And the “Rats responding with increased MI” value ([1]; 1 mg/kg IV)?
Answer: 3 out of 8

Question: What about the “Rats responding with increased MV” value ([1]; 1 mg/kg IV) of the same compound?
Answer: 6 out of 8

Question: What about the “Rats responding with increased ThP” value ([1]; 1 mg/kg IV) of the same compound?
Answer: 1 out of 8

Question: And the “Bladder capacity (BC)” value ([1]; 1 mg/kg IV, not significant)?
Answer: 0.91 ± 0.17 mL

Question: And the “Flow pressure (FP)” value ([1]; 1 mg/kg IV, not significant)?
Answer: 26.0±2.4 cmH2O

Question: And the “Micturition interval (MI)” value ([1]; 1 mg/kg IV, not significant)?
Answer: 251 ± 63 s

Question: What about the “Micturition volume (MV)” value ([1]; 1 mg/kg IV, not significant) of the same compound?
Answer: 0.90 ± 0.17 mL

Question: And the “Threshold pressure (ThP)” value ([1]; 1 mg/kg IV, not significant)?
Answer: 12.6±2.0 cmH2O

Question: What about the “Residual volume (RV)” value ([1]; 1 mg/kg IV) of the same compound?
Answer: 0.01 ± 0.01 mL

Question: What about the “Basal pressure (BP)” value ([1]; 3 mg/kg IV) of the same compound?
Answer: 9.0±4.3 cmH2O

Question: What about the “Micturition pressure (MP)” value ([1]; 3 mg/kg IV) of the same compound?
Answer: 87.3±18.9 cmH2O

Question: And the “Rats responding with increased FP” value ([1]; 3 mg/kg IV)?
Answer: 6 out of 8

Question: What about the “Rats responding with increased MI” value ([1]; 3 mg/kg IV) of the same compound?
Answer: 7 out of 8

Question: And the “Rats responding with increased MV” value ([1]; 3 mg/kg IV)?
Answer: 7 out of 8

Question: And the “Rats responding with increased ThP” value ([1]; 3 mg/kg IV)?
Answer: 7 out of 8

Question: And the “Threshold pressure (ThP)” value ([1]; 3 mg/kg IV, ANOVA ns, paired t-test vs. baseline p=0.05)?
Answer: 38.1±13.9 cmH2O

Question: What about the “Flow pressure (FP)” value ([1]; 3 mg/kg IV, not significant) of the same compound?
Answer: 62.3±18.4 cmH2O

Question: What about the “Residual volume (RV)” value ([1]; 3 mg/kg IV) of the same compound?
Answer: 0.02 ± 0.02 mL

Question: What about the “Bladder capacity (BC)” value ([1]; 3 mg/kg IV, p<0.001 vs. baseline, p<0.005 vs. vehicle) of the same compound?
Answer: 1.42 ± 0.18 mL

Question: What about the “Micturition volume (MV)” value ([1]; 3 mg/kg IV, p<0.001 vs. baseline, p<0.01 vs. vehicle) of the same compound?
Answer: 1.4 ± 0.2 mL

Question: And the “Micturition interval (MI)” value ([1]; 3 mg/kg IV, p<0.02 vs. baseline)?
Answer: 423 ± 63 s

Question: And the “Animals responding with an increase or decrease in FP” value ([1]; 0.3 and 1 mg/kg IV)?
Answer: 50%

Question: What about the “Animals with a decrease in BP” value ([1]; all doses (0.3, 1, 3 mg/kg IV)) of the same compound?
Answer: 37.5-50 % of rats

Question: What about the “Animals with an increase in BP” value ([1]; all doses (0.3, 1, 3 mg/kg IV)) of the same compound?
Answer: 25-37.5 % of rats

Question: What about the “Animals with no change in BP” value ([1]; all doses (0.3, 1, 3 mg/kg IV)) of the same compound?
Answer: 12.5-25 % of rats

Question: What about the “Rats responding with increased BC” value ([1]; all doses (0.3, 1, 3 mg/kg IV)) of the same compound?
Answer: 6 out of 8

Question: And the “Nerve-induced contractions vs untreated PUO rats” value ([2]; 1 Hz, bladders from PUO rats treated for 2 weeks)?
Answer: significantly larger contractions

Question: What about the Nerve-induced contractions ([2]; 8 Hz, p<0.01) of the same compound?
Answer: 83±14%

Question: And the Nerve-induced contractions ([2]; 16 Hz, p<0.005)?
Answer: 120±16%

Question: And the Nerve-induced contractions ([2]; 32 Hz, p<0.006)?
Answer: 146±16%

Question: What about the CB2/CB1 affinity ratio [3] of the same compound?
Answer: 34

Question: And the IC50 ([3]; displaces 50% of a radiolabeled agonist)?
Answer: 19.4 nM
